Experimental findings from patent US20250019372A1, “CRYSTALLINE FORMS OF A RIPK1 INHIBITOR” (RIGEL PHARMACEUTICALS, INC., priority 2021, published 2025) are described below.

The nature of this series: Relative thermodynamic stability of the crystalline forms. Format: physicochemical. The settings on record: compared to the other identified Forms A, B, and C; temperature range of RT to 50° C.

`CN1C(=O)[C@@H](NC(=O)c2n[nH]c(Cc3ccccc3)n2)COc2ccc(C#CC(C)(C)O)cc21` [Form D, (S)-5-benzyl-N-(7-(3-hydroxy-3-methylbut-1-yn-1-yl)-5-methyl-4-oxo-2,3,4,5-tetrahydrobenzo[b][1,4]oxazepin-3-yl)-1H-1,2,4-triazole-3-carboxamide]: the “thermodynamic stability of the crystalline form” value is given as “most thermodynamically stable crystalline form”.
